“And” between values parts separate entries of the source, which are not always exact repeats. Equal entries are not always repeated.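 Following 48 hours of exposure in 96-well plates, responses at five concentrations were used to interpolate endpoints linearly. GI50 is the concentration that inhibits growth by half. Definition used: TGI = concentration required for complete inhibition of growth.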
Columns and labels:
Test in all cases: growth of human tumour cells (NCI), 48 h
DU-145 prostate = tested on: DU-145 prostate
MCF7 breast = tested on: MCF7 breast
UACC-257 melanoma = tested on: UACC-257 melanoma
IGROV1 ovarian = tested on: IGROV1 ovarian
NCI/ADR-RES ovarian = tested on: NCI/ADR-RES ovarian

Structure (SMILES) | GI50 (DU-145 prostate) | TGI (DU-145 prostate) | GI50 (MCF7 breast) | TGI (MCF7 breast) | GI50 (UACC-257 melanoma) | TGI (UACC-257 melanoma) | GI50 (IGROV1 ovarian) | TGI (IGROV1 ovarian) | GI50 (NCI/ADR-RES ovarian) | TGI (NCI/ADR-RES ovarian)
COc1cc2cc(Oc3ccc(NC(=O)Nc4cccc(C(F)(F)F)c4)cc3)c(C)nc2cc1OCCN1CCCCC1 | 1.68 µM | 3.06 µM | 1.63 µM | 3.33 µM | 1.86 µM | 3.48 µM |  |  |  | 
Nc1cccc2c1C(=O)N(C1CCC(=O)NC1=O)C2=O (centres undefined) | > 100 µM | > 100 µM | > 100 µM | > 100 µM | > 100 µM | > 100 µM | > 100 µM | > 100 µM | > 100 µM | > 100 µM
CCOC(=O)c1cnc(SCc2ccc(Cl)c(Cl)c2)nc1N1CC1 | 2.98 µM | 9.73 µM | 1.27 µM | 11.4 µM | 4.78 µM | 19.8 µM | 2.2 µM |  | 2.91 µM | 8.72 µM
COc1ccc(/C(=C/c2cc(OC)c(OC)c(OC)c2)[N+](=O)[O-])cc1 | 1.75 µM | 3.14 µM |  |  | 1.67 µM | 3.48 µM | 1.8 µM | 3.94 µM | 2.47 µM | 7.55 µM
COc1cc2c3c(n(C)c(=O)c2cc1OC)-c1cc2c(cc1/C3=C\CCCCN)OCO2 | 10.5 µM | 31.4 µM | 3.46 µM | 12.7 µM | 12.5 µM | 35.7 µM | 3.12 µM | 8.53 µM | 4.74 µM | 18.1 µM
CC1(C)CC(=O)C2=C(C1)NC(SSC1=C(C#N)C(c3ccccc3)C3=C(CC(C)(C)CC3=O)N1)=C(C#N)C2c1ccccc1 (centres undefined) | 44.7 µg/mL | 126 µg/mL | 35.6 µg/mL | 85.6 µg/mL | 25.4 µg/mL | 46 µg/mL | 28.3 µg/mL | 50.1 µg/mL | 32.9 µg/mL | 65.9 µg/mL
O=C1C2CC(Cl)C(SSC3CC4C(=O)N(SC(Cl)(Cl)C(Cl)Cl)C(=O)C4CC3Cl)CC2C(=O)N1SC(Cl)(Cl)C(Cl)Cl (centres undefined) |  | 9.44 µM |  | 7.67 µM |  | 5.79 µM |  | 3.06 µM |  | 6.05 µM
Cc1ccc(S(=O)(=O)NC(CCC(=O)Nc2ccc(Cl)cc2)C(=O)Nc2ccc(Cl)cc2)cc1 (centres undefined) | 1.2 µM | 9.89 µM | 0.287 µM | 6.51 µM | 0.702 µM | 7.5 µM | 0.852 µM | 8.58 µM | 1.03 µM | 7.63 µM
COc1cc2c(cc1OC)C(=O)C(Br)CC2 (centres undefined) | 4.61 µM | 16.2 µM | 3.13 µM | 13.7 µM | 3.02 µM | 11.3 µM | 6.23 µM | 19.7 µM | 4.5 µM | 37.3 µM
COc1cccc(NC(=O)c2sc3nc4c(cc3c2N)CCCC4)c1 | 0.542 µM | 56.1 µM | 0.314 µM | > 100 µM | 0.727 µM | > 100 µM | 4.1 µM | > 100 µM | 0.485 µM | > 100 µM
COc1cc(CCc2cc(NC(=O)c3ccc(N4C[C@@H](C)N[C@@H](C)C4)cc3)n[nH]2)cc(OC)c1 | 7.62 µM and 6.09 µM | > 10 µM and 18.5 µM | 3.29 µM and 2.85 µM | > 10 µM and 15.8 µM | > 10 µM and 2.08 µM | > 10 µM and 5.31 µM | 2.93 µM and 4.59 µM | > 10 µM and 19.8 µM | > 10 µM and 17.1 µM | > 10 µM and 36.8 µM
CC(Cc1ccc(Cl)cc1Cl)NO (centres undefined) |  | > 100 µM |  | > 100 µM |  | > 100 µM |  | > 100 µM |  | > 100 µM
CC12OC(C(=O)C13CC3)C1C(=O)c3ccccc3C(=O)C12 (centres undefined) |  |  | 21.2 µM | 78.6 µM | 27.7 µM | 68.8 µM | 23.1 µM | 65.9 µM | 24.5 µM | 77 µM
O=[N+]([O-])c1ccc(Sc2ncccn2)c([N+](=O)[O-])c1 | 3.71 µM | 12.7 µM | 3.68 µM | 17.7 µM | 5.33 µM | 19.1 µM | 1.27 µM | 13.6 µM | 6.55 µM | 20.1 µM
COc1ccc(-c2cc(-c3ccc(Nc4nc(Nc5ccc(Cl)cc5)nc(Nc5ccc(Cl)cc5)n4)cc3)nc(N)c2C#N)cc1 | 3.91 µM | 17 µM | 2.59 µM | > 32.3 µM | 1.79 µM | 3.63 µM | 2.25 µM | 5.88 µM | 13.3 µM | > 100 µM
COC(=O)Nc1nc2ccc(C(=O)c3ccc[nH]3)cc2[nH]1 |  | > 23.2 µM |  | > 100 µM |  |  |  | > 100 µM |  | 9.01 µM
O=C(c1cccs1)c1c(C(F)(F)F)n([O-])c2ccc(C(F)(F)F)cc2[n+]1=O | 0.234 µM | 0.576 µM | 0.294 µM | 0.787 µM | 1.59 µM | 3.15 µM | 0.132 µM | 0.278 µM | 0.219 µM | 0.573 µM
Cc1ccc2c(c1)NC(c1ccc(C(=O)O)cc1)c1cccn1-2 (centres undefined) |  | 71.4 µM |  | > 100 µM |  | > 100 µM |  |  |  | 
C1=CN2C[n+]3cccc(OCc4ccccc4)c3N=C2C(OCc2ccccc2)=C1 |  | > 100 µM |  | > 100 µM |  | 27.5 µM |  | 27.7 µM |  | > 100 µM
O=[N+]([O-])c1ccc(N/N=C\c2cc(Cl)ccc2O)nc1 | 1.22 µM | 13.1 µM | 2.73 µM | > 100 µM | 1.82 µM | 7.38 µM | 1.2 µM | 4.69 µM | 0.388 µM | 8.32 µM
CCCCCCCCCCCCc1ccc(C(=O)/C=C/C(=O)O)cc1 | 8.15 µM | 20.9 µM | 1.62 µM | 3.3 µM | 3.79 µM | 15.2 µM | 1.95 µM | 3.86 µM | 7.78 µM | 24.5 µM
Cn1cc(-c2ccc(=O)n(Cc3cccc(-c4ncc(OCCN5CCOCC5)cn4)c3)n2)cn1 | > 100 µM | > 100 µM | 39.5 µM | > 100 µM | 48.7 µM | > 100 µM | > 76.6 µM | > 100 µM | 37.5 µM | > 100 µM
C1CCC([PH+](C2CCCCC2)C2CCCCC2[PH+](C2CCCCC2)C2CCCCC2)CC1.[Au].[CH-]1CCCCC1C1CCCC[N-]1 (centres undefined) | 0.401 µM | 2.44 µM |  |  | 0.329 µM | 2.24 µM |  |  | 2.97 µM | > 100 µM

Reference: PubChem BioAssay (NCI)
